Here are results for 78 molecules from the METLIN SMRT retention time set (Domingo-Almenara et al. 2019).

The nature of the data set: gradient 5% acetonitrile 3 min, to 50% in 2 min, to 85% in 15 min, held 3 min, 100 µL/min. As to conditions: column: Zorbax Extend-C18 2.1 x 50 mm; eluents: water / acetonitrile, 0.1% formic acid. An outline of the steps:
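Mixtures of ~100 pure standards were chromatographed on a Zorbax Extend-C18 column (2.1 × 50 mm, 1.8 μm) at 100 μL/min using water and acetonitrile, each with 0.1% formic acid. Detection used a quadrupole time-of-flight mass spectrometer in positive and negative ionization mode, and data collection spanned 3 months. Retention time was obtained from adduct peaks picked computationally and each checked manually.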
Take `O=C(COc1ccccc1)Nc1nonc1NC(=O)COc1ccccc1`: the RP-LC retention time came out at 854 s.

For `Cc1oc(-c2ccc(OC(C)C)cc2)nc1CN(c1ccccc1)S(=O)(=O)c1cccs1`, the RP-LC retention time worked out at 1290 s. With `CCc1nnc(-c2ccc3ccn(CC(=O)Nc4ccc(CN5CCN(CC)CC5)cc4)c3c2)o1`, the RP-LC retention time worked out at 612 s. Next, `Cc1ccnc(NC(=O)C2CCN(S(=O)(=O)c3c(C)nn(CC(=O)N4CCCC4)c3C)CC2)c1`: 619 s; `CCOC(=O)c1c(C)n(CCNC(C)=O)c2cc(Br)c(OC)cc12`: 706 s. In the case of `Cc1nnc(NC(=O)CSc2nnc(-c3ccc(Cl)cc3)o2)s1`, the RP-LC retention time stood at 772 s. For `Cc1cc(-c2nnc(NC(=O)c3cc4cc([N+](=O)[O-])ccc4s3)o2)n(C)n1`, the RP-LC retention time stood at 789 s.

For the molecule `CCCc1nnsc1C(=O)Nc1ccc2c(c1)CN(C(=O)c1ccco1)CC2`, the RP-LC retention time came out at 786 s.

As to `Cc1cc(Cl)ccc1NS(=O)(=O)c1cc(-c2nc(C(C)(C)C)cs2)cs1`, the RP-LC retention time is 1360 s. Molecule `CCc1ccc(NC(=O)C2CCCN(c3ccc(=O)n(-c4ccc(C)c(Cl)c4)n3)C2)cc1` (stereo not drawn) returned an RP-LC retention time of 586 s. As for `Cn1cnc(S(=O)(=O)N2CC[C@@H]3COCCN(Cc4ccccc4)[C@@H]3C2)c1`, the RP-LC retention time was 586 s. Molecule `CCOC(=O)c1[nH]c(C)c(CN(Cc2ccco2)C(=O)Cc2ccc(F)cc2)c1C` came in with an RP-LC retention time of 1020 s. Next, `COc1ccc(-c2c(C)noc2NC(C)=O)cc1S(=O)(=O)Nc1ccc(F)cc1F`: 743 s; `O=C(Cn1cnc2nc(N3CCC(C(=O)NC4CC4)CC3)sc2c1=O)NCc1ccccc1`: 637 s; `CNC(=O)c1cc2n(n1)CCCN(Cc1ccc(C)cc1)C2=O`: 699 s. Next, `Cc1ccc2c(=O)c(C(=O)N3CCCCC3)cn(CC(=O)NC3CCCCC3)c2n1`: 731 s; `COCC(C)(O)CNC(=O)C(=O)NCCc1ccccc1` (stereo not drawn): 660 s.

Turning to `Brc1cn2c(Nc3ccc4c(c3)OCCO4)c(-c3ccccc3)nc2cn1`, the RP-LC retention time was 916 s.

On to `CCN1CCN(C2CCN(C(=O)c3ccco3)CC2)C1=O`, for which the RP-LC retention time was found to be 627 s. On to `CCCCN(C)C(=O)Cn1c(=O)c(S(=O)(=O)c2ccccc2)cc2cc(C)ccc21`, for which the RP-LC retention time was found to be 953 s. `Cn1cc(C(F)(F)F)nc1-c1ccc(OCC(O)CNCCOc2ccc(O)c(C(N)=O)c2)cc1` (stereo not drawn) had an RP-LC retention time of 710 s. Next, `COc1cc(CNCCc2ccc(S(N)(=O)=O)cc2)ccc1Oc1nnnn1-c1ccccc1`: 672 s; `CC(=O)OC[C@]12CCC(C)=C[C@H]1O[C@@H]1[C@H](O)[C@@H](OC(C)=O)[C@@]2(C)[C@@]12CO2`: 750 s; `COc1ccc(-c2nc(C3CC(=O)N(c4ccc(Cl)cc4)C3)no2)c(OC)c1` (stereo not drawn): 996 s. Consider `COc1ccc(-c2nc3ncccn3c2NCc2ccc(F)cc2)cc1OC`, for which the RP-LC retention time worked out at 692 s.

`COCCCNC(=O)c1ccc2c(c1)N(Cc1ccccc1)C(=O)CO2` registered an RP-LC retention time of 732 s. Next, `COc1cccc(CNC(=O)c2cn3ccc(C)cc3n2)c1OC`: 632 s; `Fc1cccc(-c2noc(-c3nc(-c4ccc5c(c4)OCO5)no3)n2)c1`: 1220 s; `CNC(=O)C1CCN(c2nc3ncn(CC(=O)Nc4c(C)cc(C)cc4C)c(=O)c3s2)CC1`: 646 s. Next, `Cc1nc(-c2ccccc2)cc2nn(CC(=O)Nc3ccc4c(c3)OCO4)c(=O)n12`: 719 s.

The molecule `CC(C)CCNC(=O)CCCn1c(=O)c2cccn2c2ccccc21` came in with an RP-LC retention time of 859 s. Next, `Cc1cc(C)cc(-n2ccn3c(CCCC(=O)N4CCN(c5ccccn5)CC4)nnc3c2=O)c1`: 616 s; `COC1CCC12CCN(C(=O)c1ccoc1)CC2` (stereo not drawn): 723 s.

`CN(C)Cc1ccc(S(=O)(=O)n2ccc(/C=C/C(=O)NO)c2)cc1` displayed an RP-LC retention time of 936 s. For `COc1ccc(-c2csc(N3CCN(c4ccc([N+](=O)[O-])c(-n5nc(C)cc5C)c4)CC3)n2)cc1`, the RP-LC retention time was found to be 1150 s. Next, `CC(C)c1nc2c(N)cccn2n1`: 613 s; `O=c1ccc(-c2cccc(Br)c2)nn1Cc1nc(-c2cccs2)no1`: 1020 s. `O=C(NCCc1csc(-c2ccc(F)cc2)n1)c1ccc2c(c1)OCO2`: the RP-LC retention time was found to be 908 s. Next, `Cc1ccccc1CNC(=O)c1c(C)oc2c1C1=NCCN1C=N2`: 621 s.

On to `O=C(CCSc1ccccc1)NCCOc1ccc2nnc(-c3ccccc3)n2n1`, for which the RP-LC retention time was found to be 736 s. Next, `CCN1C(=O)c2cccnc2Sc2cc(NC(=O)COc3cccc(Cl)c3)ccc21`: 916 s; `Cc1cc(C(=O)N2CCC(c3cc(N)on3)CC2)c(C)o1`: 667 s; `CC1CC(=O)c2cnc(N3CCN(c4ccc(F)cc4)CC3)nc2C1` (stereo not drawn): 1080 s. Turning to `COc1ccc(C(=O)N(Cc2cc(OC)c(OC)c(OC)c2)C2CCS(=O)(=O)C2)cc1` (stereo not drawn), the RP-LC retention time worked out at 749 s.

As to `CCC(=O)Nc1ccc(CCc2nc3ccc(C(=O)NCCCOC)cc3[nH]2)cc1`, the RP-LC retention time stood at 596 s. Next, `O=C(O)c1cn(CCc2ccccc2)nc1S(=O)(=O)N1CCSCC1`: 838 s; `COc1ccc(NC(=O)C2CC(=O)N(c3n[nH]c4cccc(F)c34)C2)cc1Cl` (stereo not drawn): 752 s. Next, `Cn1cc(CCNS(=O)(=O)c2ccccc2C(F)(F)F)c2cccnc21`: 764 s. Consider `CCN(CC)S(=O)(=O)c1ccc2c(c1)N(CC(=O)NCc1cccs1)C(=O)C1CCCCN21` (stereo not drawn), for which the RP-LC retention time worked out at 949 s.

Regarding `Cn1c(=O)c(=O)n(C)c2cc(N3CCCCC3)c(NC(=O)CN3CCOCC3)cc21`, the RP-LC retention time stood at 608 s.

Consider `COc1ccc(-c2noc(Cn3ccn(-c4cc(C)cc(C)c4)c(=O)c3=O)n2)cc1OC`, for which the RP-LC retention time came to 834 s.

`Cc1ccc(C(=O)N2CCCn3nc(-c4ccc(Cl)cc4)cc3C2)s1` showed an RP-LC retention time of 931 s. As for `CCCn1cnc2cc(-c3noc(C(C)NS(=O)(=O)c4ccc(C)cc4)n3)ccc21` (stereo not drawn), the RP-LC retention time was 731 s. Next, `CCc1nc2cc(N3CCC(C(=O)NC(C)CC)CC3)cnc2nc1CC` (stereo not drawn): 758 s; `Cc1ccc(-c2ccc(-n3nc(C)c(S(=O)(=O)NC4CC4)c3C)nn2)cc1`: 944 s.

As to `COC(=O)c1ccc(NC(=O)c2cnc(-c3ccc(C)cc3)nc2-c2ccncc2)cc1`, the RP-LC retention time came to 961 s. Regarding `Fc1ccc(CN2CCCCC2c2nc(-c3cnccn3)no2)cc1F` (stereo not drawn), the RP-LC retention time was determined as 849 s. Next, `CCS(=O)(=O)c1ccc2c(c1)N(Cc1nc(-c3cccc(OC)c3)no1)C(=O)CO2`: 883 s. As for `Cc1ccccc1-c1nc(-c2ccc(-n3ccnc3)nc2)no1`, the RP-LC retention time was 814 s.

For `Cc1ccc(Oc2nccn3c(=O)n(CC(=O)Nc4ccc(C)c(Cl)c4)nc23)cc1`, the RP-LC retention time was found to be 1010 s. Next, `O=C(Nc1ccccc1C(F)(F)F)C1CCCN(C(=O)Cc2cccc3ccccc23)C1` (stereo not drawn): 998 s.

As to `O=C(C1CC1)N1CCc2sc(S(=O)(=O)NCc3ccccc3F)cc2C1`, the RP-LC retention time stood at 815 s. `N#Cc1ccc(NC(=O)Cn2cc(-c3ccccc3)c3ncn(C4CC4)c(=O)c32)cc1`: the RP-LC retention time was 885 s. In turn, `Cc1ccc2ncn(C3CCN(C(=O)Nc4ccc(C)c(Cl)c4)CC3)c(=O)c2c1` yielded an RP-LC retention time of 888 s. Next, `CN1C(=O)c2[nH]nc(-c3ccccc3)c2C1c1cccnc1` (stereo not drawn): 609 s. For `O=C(NCCc1c[nH]c2ccccc12)c1cc(=O)c(OCc2ccc(F)cc2)co1`, the RP-LC retention time turned out to be 765 s. Take `COc1ccccc1-c1nnc(NC(=O)C2CC(=O)N(c3ccc(F)cc3)C2)o1` (stereo not drawn): the RP-LC retention time stood at 652 s. Next, `O=C(NCc1ccccc1)C1Cc2ccccc2CN1S(=O)(=O)c1ccccc1` (stereo not drawn): 981 s; `O=C(CN1C(=O)COc2ccc(C(=O)N3CCCC3)cc21)N1CCN(c2ccccc2)CC1`: 718 s; `CCn1cc(C)c(C(=O)O)c1CC(=O)N1CCc2ccccc2C1`: 780 s. Next, `COCCN1C(=O)[C@H]2CN(Cc3ccc(C)cc3C)C[C@H]2C1=O`: 644 s. Next, `Cc1nn(-c2ccccc2)c(C)c1S(=O)(=O)N1CCC(C(=O)Nc2ccccc2F)CC1`: 950 s. As for `Cc1csc(NC(=O)CN2CCC3(CC2)NC(=O)N(Cc2ccc(Cl)cc2)C3=O)n1`, the RP-LC retention time was found to be 949 s. `CN1CCC2(CC1)CN(C(=O)Nc1ccccc1)CC2c1nc(-c2ccccc2)no1` (stereo not drawn) came in with an RP-LC retention time of 659 s. In turn, `O=C(NC1CC1)c1cc2cc(Cl)ccc2[nH]1` yielded an RP-LC retention time of 809 s. Next, `Cc1cccc(CNC(=O)c2[nH]c3cc(C)sc3c2CN2CCOCC2)c1`: 724 s; `Cn1cccc1CN(Cc1cccs1)C(=O)Cn1c(=O)oc2ccccc21`: 899 s; `Cc1ccc(C(=O)NCC(=O)Nc2cc(-c3nc(C)cs3)sc2C)cc1`: 814 s.
